Assay type in all cases: biochemical
For one assay, the target named is JAK2 kinase (Homo sapiens, UniProt O60674). As to the kind of experiment: Inhibition assay of JAK2 kinase activity (ADP-Glo Kinase Assay). The source says: Inhibition assay of JAK2 kinase activity: the method in ADP-Glo™ Kinase Assay (Promega, V9102) was used to determine the inhibitory activity of the test compounds against JAK2 kinase.
A general note: ADP-Glo turns the ADP formed in a reaction into a luminescent signal.

For the next assay, the target named is T1, TYK2 kinase (Homo sapiens, UniProt P29597).
T1 construct: purchased Life Technologies PR8440C
T1 sequence (P29597 whole entry): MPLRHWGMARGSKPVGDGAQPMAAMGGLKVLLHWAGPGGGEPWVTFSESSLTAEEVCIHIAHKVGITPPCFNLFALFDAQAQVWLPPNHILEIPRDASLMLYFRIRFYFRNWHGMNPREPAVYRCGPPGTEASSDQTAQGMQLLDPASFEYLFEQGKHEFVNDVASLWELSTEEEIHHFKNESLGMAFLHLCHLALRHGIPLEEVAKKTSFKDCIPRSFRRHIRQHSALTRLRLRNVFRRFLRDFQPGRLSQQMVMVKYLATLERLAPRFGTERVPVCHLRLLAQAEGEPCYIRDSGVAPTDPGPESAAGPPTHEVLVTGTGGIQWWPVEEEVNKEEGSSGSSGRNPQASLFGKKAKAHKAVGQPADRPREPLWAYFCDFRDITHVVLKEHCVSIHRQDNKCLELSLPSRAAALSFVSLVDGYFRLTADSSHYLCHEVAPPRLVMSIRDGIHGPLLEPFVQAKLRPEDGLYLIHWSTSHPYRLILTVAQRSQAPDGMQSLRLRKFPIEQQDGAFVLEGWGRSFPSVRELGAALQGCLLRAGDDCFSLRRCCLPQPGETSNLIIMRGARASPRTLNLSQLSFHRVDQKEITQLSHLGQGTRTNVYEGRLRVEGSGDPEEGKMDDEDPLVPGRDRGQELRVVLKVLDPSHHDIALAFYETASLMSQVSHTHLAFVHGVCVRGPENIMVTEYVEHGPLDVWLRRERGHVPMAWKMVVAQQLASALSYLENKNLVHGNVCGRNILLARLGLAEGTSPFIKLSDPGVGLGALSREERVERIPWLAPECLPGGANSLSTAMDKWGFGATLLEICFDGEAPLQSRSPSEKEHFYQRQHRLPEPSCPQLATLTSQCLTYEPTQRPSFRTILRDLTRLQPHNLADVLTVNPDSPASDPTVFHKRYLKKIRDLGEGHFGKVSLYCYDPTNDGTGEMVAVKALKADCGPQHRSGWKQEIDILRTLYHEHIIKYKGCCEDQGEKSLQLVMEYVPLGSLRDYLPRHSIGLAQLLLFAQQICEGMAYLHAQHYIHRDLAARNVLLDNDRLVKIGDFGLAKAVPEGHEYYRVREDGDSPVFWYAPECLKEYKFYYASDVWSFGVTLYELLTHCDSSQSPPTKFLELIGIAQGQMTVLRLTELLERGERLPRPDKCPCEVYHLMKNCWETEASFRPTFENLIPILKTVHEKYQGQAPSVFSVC
Briefly: Inhibition assay of TYK2 kinase activity (ADP-Glo Kinase Assay). The procedure: Determination of inhibition of TYK2 kinase activity by the examples compounds disclosed herein
Inhibition assay of TYK2 kinase activity: the method of ADP-Glo™ Kinase Assay (Promega, V9102) was used to determine the inhibitory activity of the test compounds against TYK2 kinase.
TYK2 kinase (purchased from Life Technologies, article number: PR8440C) was diluted to the 2-fold final concentration (0.8 ng/mL) using reaction buffer (40 mM Tris-HCl, pH 7.5; 20 mM MgCl2; 0.1 mg/mL BSA; 1 mM DTT), and added to a 384-well plate at 5 μL/well. The test drugs were subjected to a 10-fold gradient dilution, from 10 μM, to obtain 6 concentrations, and added to experimental wells of the 384-well plate at 2.5 μL/well. 5 μL of water and 2.5 μL of buffer were added to negative control wells. 5 μL of TYK2 and 2.5 μL of water were added to positive control wells. After incubating for 10 minutes at room temperature, the substrate ATP and polyE4Y1 (Sigma, P0275) were added at 2.5 μL/well, mixed well, and then reacted at room temperature for 60 minutes. After the reaction was completed, the kinase activity was detected according to the instruction of the kit. First, the ADP-Glo reaction reagent was added at 10 μL/well, mixed well, and reacted at room temperature for 40 minutes. The kinase detection reagent was then added at 20 μL/well, mixed well, and then reacted at room temperature for 30 minutes. The detection was then performed and the IC50s of test drugs were calculated.

In a further assay the target is JAK1 kinase (Homo sapiens, UniProt P23458). Briefly: Inhibition assay of JAK1 kinase activity (ADP-Glo Kinase Assay). The source says:
Inhibition assay of JAK1 kinase activity: the method in ADP-Glo™ Kinase Assay (Promega, V9102) was used to determine the inhibitory activity of the test compounds against JAK1 kinase.

SMILES strings stand for the structures.

Sequence of JAK2 kinase (O60674 whole entry): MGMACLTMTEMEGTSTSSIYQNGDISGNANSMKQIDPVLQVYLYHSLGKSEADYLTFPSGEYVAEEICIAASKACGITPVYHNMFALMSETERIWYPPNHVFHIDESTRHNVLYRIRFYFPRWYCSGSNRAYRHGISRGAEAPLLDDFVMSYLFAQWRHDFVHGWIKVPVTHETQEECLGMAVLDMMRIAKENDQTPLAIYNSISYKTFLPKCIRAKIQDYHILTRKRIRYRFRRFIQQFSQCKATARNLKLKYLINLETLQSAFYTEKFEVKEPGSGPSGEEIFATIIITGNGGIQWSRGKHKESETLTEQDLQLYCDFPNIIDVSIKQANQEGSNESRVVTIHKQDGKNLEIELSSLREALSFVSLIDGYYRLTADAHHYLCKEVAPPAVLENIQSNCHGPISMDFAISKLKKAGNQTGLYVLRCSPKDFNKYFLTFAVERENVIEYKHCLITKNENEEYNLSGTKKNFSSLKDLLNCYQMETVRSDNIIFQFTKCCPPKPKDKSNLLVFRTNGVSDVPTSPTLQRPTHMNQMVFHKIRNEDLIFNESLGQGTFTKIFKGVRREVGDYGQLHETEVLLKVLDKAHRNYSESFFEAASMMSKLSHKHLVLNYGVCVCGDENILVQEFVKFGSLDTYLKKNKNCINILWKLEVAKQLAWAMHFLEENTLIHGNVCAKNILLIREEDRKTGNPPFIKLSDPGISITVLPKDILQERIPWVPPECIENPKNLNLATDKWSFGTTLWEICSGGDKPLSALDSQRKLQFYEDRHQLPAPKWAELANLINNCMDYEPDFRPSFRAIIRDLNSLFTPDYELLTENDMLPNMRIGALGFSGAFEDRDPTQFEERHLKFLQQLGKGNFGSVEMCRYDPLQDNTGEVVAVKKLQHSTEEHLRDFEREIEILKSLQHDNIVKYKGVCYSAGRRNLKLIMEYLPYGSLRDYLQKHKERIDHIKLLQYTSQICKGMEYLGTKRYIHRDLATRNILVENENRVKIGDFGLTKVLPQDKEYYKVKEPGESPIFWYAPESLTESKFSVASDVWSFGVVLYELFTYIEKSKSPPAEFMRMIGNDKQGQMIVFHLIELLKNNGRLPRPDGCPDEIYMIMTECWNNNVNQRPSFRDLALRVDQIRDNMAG
Sequence of JAK1 kinase (P23458 whole entry): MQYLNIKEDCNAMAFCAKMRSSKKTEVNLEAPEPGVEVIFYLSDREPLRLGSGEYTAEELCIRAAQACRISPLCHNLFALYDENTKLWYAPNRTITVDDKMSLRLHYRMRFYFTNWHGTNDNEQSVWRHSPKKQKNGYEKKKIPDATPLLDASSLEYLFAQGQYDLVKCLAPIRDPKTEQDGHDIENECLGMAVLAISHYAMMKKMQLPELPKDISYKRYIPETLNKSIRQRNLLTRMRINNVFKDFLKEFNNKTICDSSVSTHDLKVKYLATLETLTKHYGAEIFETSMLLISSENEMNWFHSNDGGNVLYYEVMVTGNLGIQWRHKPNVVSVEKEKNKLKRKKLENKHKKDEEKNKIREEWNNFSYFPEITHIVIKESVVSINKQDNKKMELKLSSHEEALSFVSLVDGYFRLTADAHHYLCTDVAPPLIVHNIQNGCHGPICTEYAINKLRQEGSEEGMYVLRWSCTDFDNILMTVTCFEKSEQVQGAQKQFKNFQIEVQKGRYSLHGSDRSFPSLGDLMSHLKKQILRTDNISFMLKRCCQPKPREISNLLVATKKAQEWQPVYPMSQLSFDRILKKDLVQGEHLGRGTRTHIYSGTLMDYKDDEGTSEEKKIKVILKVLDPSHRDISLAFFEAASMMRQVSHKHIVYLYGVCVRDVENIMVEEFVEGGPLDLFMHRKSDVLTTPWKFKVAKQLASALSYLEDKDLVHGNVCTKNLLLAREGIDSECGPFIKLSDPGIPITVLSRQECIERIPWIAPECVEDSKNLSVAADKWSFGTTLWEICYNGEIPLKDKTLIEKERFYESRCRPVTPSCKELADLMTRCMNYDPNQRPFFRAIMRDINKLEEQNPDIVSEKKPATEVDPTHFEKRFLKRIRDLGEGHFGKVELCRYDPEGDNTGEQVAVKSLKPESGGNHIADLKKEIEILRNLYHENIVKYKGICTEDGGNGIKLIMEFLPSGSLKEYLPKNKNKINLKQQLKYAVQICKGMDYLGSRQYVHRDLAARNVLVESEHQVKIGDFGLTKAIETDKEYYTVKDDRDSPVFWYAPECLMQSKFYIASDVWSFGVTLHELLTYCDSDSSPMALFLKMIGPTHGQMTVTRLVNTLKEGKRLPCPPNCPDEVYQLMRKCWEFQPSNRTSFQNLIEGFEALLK

A word on the IC50: it is the concentration that inhibits the measured activity by half. A higher IC50 goes with a need for much substance. On to `NC(=O)c1cnc(Nc2ccc3c(c2)NCC(O)CO3)nc1NCC(F)(F)F` (stereo not drawn) [Example 7, 4-((2,2,2-trifluoroethyl)amino)-2-((3-hydroxy-2,3,4,5-tetrahydro-benzo[b][1,4]oxazepin-7-yl)amino)pyrimidin-5-carboxamide], for which the IC50 is 0.01 to 0.1 µM at JAK2 kinase, less than 0.01 µM at TYK2 kinase and 0.01 to 0.1 µM against JAK1 kinase.
For the compound `NC(=O)c1cnc(Nc2ccc3c(c2)NCC(O)CO3)nc1NCc1ccccc1` (stereo not drawn) [Example 9, 4-(benzylamino)-2-((3-hydroxy-2,3,4,5-tetrahydro-benzo[b][1,4]oxazepin-7-yl)amino)pyrimidin-5-carboxamide], the IC50 against JAK2 kinase is 0.01 to 0.1 µM; at TYK2 kinase, less than 0.01 µM; against JAK1 kinase it was less than 0.01 µM.
As for `Cn1ccc2c(Nc3nc(Nc4ccc5c(c4)NCC(O)CO5)ncc3C(N)=O)cccc21` (stereo not drawn) [Example 20, 4-((1-methyl-1H-indol-4-yl)amino)-2-((3-hydroxy-2,3,4,5-tetrahydro-benzo[b][1,4]oxazepin-7-yl)amino)pyrimidin-5-carboxamide], the figures for the IC50 against TYK2 kinase and against JAK1 kinase were less than 0.01 µM and 0.01 to 0.1 µM, respectively.
For `NC(=O)c1cnc(Nc2ccc3c(c2)NC[C@H](O)CO3)nc1NC1CC1` [Example 26, (S)-4-(cyclopropylamino)-2-((3-hydroxy-2,3,4,5-tetrahydro-benzo[b][1,4]oxazepin-7-yl)amino)pyrimidin-5-carboxamide], the IC50 at JAK2 kinase, against TYK2 kinase and on JAK1 kinase was less than 0.01 µM throughout.
For `CO[C@H]1CNc2cc(Nc3ncc(C(N)=O)c(NC4CC4)n3)ccc2OC1` [Example 27, (S)-4-(cyclopropylamino)-2-((3-methoxy-2,3,45-tetrahydro-benzo[b][1,4]oxazepin-7-yl)amino)pyrimidin-5-carboxamide], the IC50 against JAK2 kinase is 0.01 to 0.1 µM; against TYK2 kinase, less than 0.01 µM; against JAK1 kinase, less than 0.01 µM.
With `NC(=O)c1cnc(Nc2ccc3c(c2)NC[C@H](O)CO3)nc1Nc1cccc2[nH]ccc12` [Example 29, 4-((1H-indol-4-yl)amino)-2-(((S)-2,3,4,5-tetrahydro-3-hydroxybenzo[b][1,4]oxazepin-7-yl)amino)pyrimidin-5-carboxamide], the 50% inhibitory concentration (IC50) against TYK2 kinase and against JAK1 kinase was less than 0.01 µM throughout.
Take `CC(C)Nc1nc(Nc2ccc3c(c2)NC[C@H](O)CO3)ncc1C(N)=O` [Example 30, 4-(isopropylamino)-2-(((S)-2,3,4,5-tetrahydro-3-hydroxybenzo[b][1,4]oxazepin-7-yl)amino)pyrimidin-5-carboxamide]: the values for the IC50 against TYK2 kinase and against JAK1 kinase were less than 0.01 µM and 0.01 to 0.1 µM, respectively.
On to `CC(Nc1nc(Nc2ccc3c(c2)NC[C@H](O)CO3)ncc1C(N)=O)C(F)(F)F` (stereo partly drawn) [Example 32, 4-(1,1,1-trifluoropropan-2-ylamino)-2-(((S)-2,3,4,5-tetrahydro-3-hydroxybenzo[b][1,4]oxazepin-7-yl)amino)pyrimidin-5-carboxamide], for which the IC50 against TYK2 kinase and on JAK1 kinase was 0.01 to 0.1 µM each time.
Take `NC(=O)c1cnc(Nc2ccc3c(c2)NC[C@H](O)CO3)nc1NC1CCCCC1` [Example 33, 4-(cyclohexylamino)-2-(((S)-2,3,4,5-tetrahydro-3-hydroxybenzo[b][1,4]oxazepin-7-yl)amino)pyrimidin-5-carboxamide]: the figures for the IC50 against TYK2 kinase and on JAK1 kinase were less than 0.01 µM and 0.01 to 0.1 µM, respectively.
With `NC(=O)c1cnc(Nc2ccc3c(c2)NC[C@H](O)CO3)nc1Nc1cccc(-c2nc[nH]n2)c1` [Example 35], the IC50 is less than 0.01 µM against TYK2 kinase and 0.01 to 0.1 µM against JAK1 kinase.
In the case of `NC(=O)c1cnc(Nc2ccc3c(c2)NC[C@H](O)CO3)nc1NC1CC(O)C1` (stereo partly drawn) [Example 36, 4-((3-hydroxycyclobutyl)amino)-2-(((S)-2,3,4,5-tetrahydro-3-hydroxybenzo[b][1,4]oxazepin-7-yl)amino)pyrimidin-5-carboxamide], the IC50 was less than 0.01 µM at TYK2 kinase and 0.01 to 0.1 µM against JAK1 kinase.
Take `NC(=O)c1cnc(Nc2ccc3c(c2)NC[C@H](O)CO3)nc1NC1CCC(O)C1` (stereo partly drawn) [Example 37, 4-((3-hydroxycyclopentyl)amino)-2-(((S)-2,3,4,5-tetrahydro-3-hydroxybenzo[b][1,4]oxazepin-7-yl)amino)pyrimidin-5-carboxamide]: the IC50 at TYK2 kinase and against JAK1 kinase was less than 0.01 µM throughout.
On to `NC(=O)c1cnc(Nc2ccc3c(c2)NC[C@H](O)CO3)nc1NC1CCC(O)CC1` (stereo partly drawn) [Example 39, 4-((4-hydroxycyclohexyl)amino)-2(((S)-2,3,4,5-tetrahydro-3-hydroxybenzo[b][1,4]oxazepin-7-yl)amino)pyrimidin-5-carboxamide], for which the half-inhibitory concentration (IC50) against TYK2 kinase is less than 0.01 µM; against JAK1 kinase, 0.01 to 0.1 µM.
Turning to `CCNc1nc(Nc2ccc3c(c2)NC[C@H](O)CO3)ncc1C(N)=O` [Example 40, 4-(ethylamino)-2-(((S)-2,3,4,5-tetrahydro-3-hydroxybenzo[b][1,4]oxazepin-7-yl)amino)pyrimidin-5-carboxamide], the IC50 on TYK2 kinase was less than 0.01 µM; on JAK1 kinase, 0.01 to 0.1 µM.
Regarding `NC(=O)c1cnc(Nc2ccc3c(c2)NC[C@H](O)CO3)nc1NCc1ccnc2[nH]ccc12` [Example 41, 4-(((1H-pyrrolo[2,3-b]pyridin-4-yl)methyl)amino)-2-(((S)-2,3,4,5-tetrahydro-3-hydroxybenzo[b][1,4]oxazepin-7-yl)amino)pyrimidin-5-carboxamide], the IC50 against TYK2 kinase and on JAK1 kinase was less than 0.01 µM throughout.
Consider `N#CCC(=O)N1CCC(Nc2nc(Nc3ccc4c(c3)NC[C@H](O)CO4)ncc2C(N)=O)C1` (stereo partly drawn) [Example 42, 4-((1-(2-cyanoacetyl)pyrrolidin-3-yl)amino)-2-(((S)-2,3,4,5-tetrahydro-3-hydroxybenzo[b][1,4]oxazepin-7-yl)amino)pyrimidin-5-carboxamide], for which the figures for the IC50 at TYK2 kinase and on JAK1 kinase were less than 0.01 µM and 0.01 to 0.1 µM, respectively.
The matching figures for `NC(=O)c1cnc(Nc2ccc3c(c2)NC[C@H](O)CO3)nc1NC12CC3CC(CC(O)(C3)C1)C2` [Example 43, 4-((1-hydroxyadamantan-3-yl)amino)-2-(((S)-2,3,4,5-tetrahydro-3-hydroxybenzo[b][1,4]oxazepin-7-yl)amino)pyrimidin-5-carboxamide]: less than 0.01 µM and less than 0.01 µM.
With `NC(=O)c1cnc(Nc2ccc3c(c2)NC[C@H](O)CO3)nc1NC12CC3CC(CC(C3)C1)C2` [Example 45, 4-(adamantan-1-ylamino)-2-(((S)-2,3,4,5-tetrahydro-3-hydroxybenzo[bb][1,4]oxazepin-7-yl)amino)pyrimidin-5-carboxamide], the IC50 on TYK2 kinase and on JAK1 kinase was 0.01 to 0.1 µM in each case.
`CNc1nc(Nc2ccc3c(c2)NC[C@H](O)CO3)ncc1C(N)=O` [Example 47, 4-(methylamino)-2-(((S)-2,3,4,5-tetrahydro-3-hydroxybenzo[b][1,4]oxazepin-7-yl)amino)pyrimidin-5-carboxamide]: the IC50 against TYK2 kinase is less than 0.01 µM; against JAK1 kinase it was 0.01 to 0.1 µM.
With `NC(=O)c1cnc(Nc2ccc3c(c2)NC[C@H](O)CO3)nc1NCCCCO` [Example 48, 4-((4-hydroxybutyl)amino)-2-(((S)-2,3,4,5-tetrahydro-3-hydroxybenzo[b][1,4]oxazepin-7-yl)amino)pyrimidin-5-carboxamide], the IC50 on JAK2 kinase, against TYK2 kinase and against JAK1 kinase was less than 0.01 µM in each case.
Take `NC(=O)c1cnc(Nc2ccc3c(c2)NC[C@H](O)CO3)nc1NC12CC3CC(C1)C(O)C(C3)C2` (stereo partly drawn) [Example 49, 4-((4-hydroxyadamantan-1-yl)amino)-2-(((S)-2,3,4,5-tetrahydro-3-hydroxybenzo[b][1,4]oxazepin-7-yl)amino)pyrimidin-5-carboxamide]: the IC50 at JAK2 kinase, on TYK2 kinase and on JAK1 kinase was less than 0.01 µM in each case.
Consider `COCCCNc1nc(Nc2ccc3c(c2)NC[C@H](O)CO3)ncc1C(N)=O` [Example 52, 4-((3-methoxypropyl)amino)-2-(((S)-2,3,4,5-tetrahydro-3-hydroxybenzo[b][1,4]oxazepin-7-yl)amino)pyrimidin-5-carboxamide], for which the IC50 against TYK2 kinase was less than 0.01 µM; against JAK1 kinase, 0.01 to 0.1 µM.
As to `NC(=O)c1cnc(Nc2ccc3c(c2)NC[C@H](O)CO3)nc1NC1CNC1` [Example 58, 4-(azetidin-3-ylamino)-2-(((S)-2,3,4,5-tetrahydro-3-hydroxybenzo[b][1,4]oxazepin-7-yl)amino)pyrimidin-5-carboxamide], the IC50 on TYK2 kinase and against JAK1 kinase was 0.01 to 0.1 µM each time.
`NC(=O)c1cnc(Nc2ccc3c(c2)NC[C@H](O)CO3)nc1NCCCN1CCOCC1` [Example 62, 4-((3-morpholinopropyl)amino)-2-(((S)-2,3,4,5-tetrahydro-3-hydroxybenzo[b][1,4]oxazepin-7-yl)amino)pyrimidin-5-carboxamide]: the IC50 at TYK2 kinase and against JAK1 kinase was 0.01 to 0.1 µM each time.

The record behind these values is patent US20200172529A1, “Chemical Compound, Pharmaceutical Composition Thereof, and Use and Application Thereof” (Beijing Hanmi Pharm. Co., Ltd., priority 2017, published 2020).
